Data: patent US20230247990A1, “Stable Botanical Antimicrobial Compositions” (The Trustees of Columbia University in the city of New York, priority 2020, published 2023)

Assay: Accelerated aging method, long term stability at 45° C.
Assay type: physicochemical
Conditions: temperature higher than 40° C., including 45° C. of the accelerated aging method
Description: In certain embodiments, the 1 year period is achieved through simulating such conditions with the accelerated aging method. The accelerated aging method can be conducted by keeping the solutions at 45° C. for 8 weeks, which is equivalent to stability of 1 year under regular, room temperature conditions.
The accelerated aging method was conducted by keeping the solutions at 45° C. for 8 weeks, which is equivalent to stability of 1 year at regular, room temperature conditions.

C=CCCCCCCCCC(=O)O [Undecylenic acid]
Solubility in solvents at elevated temperature: gradually precipitates
